{
  "source": "patent US4469701A",
  "about": "“Pyrrolid-3-en-2-ones and pharmaceutical methods of use thereof” (Stauffer Chemical Company, priority 1983, dated 1984)",
  "key": {"[1]": {"test_system": "mice", "assay": "Peripheral anticholinergic: lacrimation and salivation in mice", "type": "in vivo", "conditions": "Mus musculus, ip, mice; reference compounds; read-out: ED-100, peripheral anticholinergic"}, "[2]": {"test_system": "mice", "assay": "Central anticholinergic: oxotremorine tremors in mice", "conditions": "Mus musculus, ip, 1 h, read-out: ED-100, central anticholinergic", "description": "No tremor equals 0, mild tremor equals 1 and strong tremor equals 2. Maximum score--3 mice×2 equals 6. Scores less than 4 (<4) indicate activity."}, "[3]": {"test_system": "hypercholesterolemic mice", "assay": "HP-betalipoprotein: serum heparin precipitating lipoprotein (HPL)", "type": "in vivo, mouse", "conditions": "Mus musculus, po; hypercholesterolemic mice; reference compounds; read-out: ED-100, HP-betalipoprotein", "from_the_text": "Reduction of serum heparin precipitating lipoprotein (HPL) concentrations (corresponding to low density lipoprotein and very low density lipoprotein fractions) in the same hypercholesterolemic mice from Test 6 above by more than 20% (>20) from control animals indicates activity."}, "[4]": {"test_system": "hypercholesterolemic mice", "assay": "Hypocholesterolemic: serum cholesterol in hypercholesterolemic mice", "type": "in vivo, mouse", "conditions": "Mus musculus, po, hypercholesterolemic mice; reference compounds; read-out: ED-100, hypocholesterolemic", "method": "Mice made hypercholesterolemic by being fed a high cholesterol-cholic acid diet for 7 days were dosed on the sixth and seventh days, p.o. After fasting overnight, reduction in serum cholesterol concentration by more than 15% (>15) from hypercholesterolemic control mice indicates activity.\n^4 C = Hypocholesterolemic. Percent decrease in serum cholesterol in\nhypercholesterolemic mice given 2 oral doses of 200 mg/kg drug candidate"}, "[5]": {"test_system": "glucose-loaded mice", "assay": "Hypoglycemic, glucose-loaded mice", "type": "in vivo, mouse", "conditions": "glucose-loaded mice; for ED100: Mus musculus, po, 1 h, p.o., reference compounds, read-out: ED-100, hypoglycemic, mice", "method": "Reduction in blood glucose concentration by more than 20% (>20) in fasted, glucose-loaded (1 gm/kg) mice one hour after dosing, p.o., indicates activity (test compound administered at same time as glucose load).\n^5 H = Hypoglycemic. Percent decrease in serum glucose concentration\nin glucose loaded mice hr. following a 100 mg/kg oral dose."}, "[6]": {"test_system": "starch loaded mice", "assay": "Carbohydrate (CHO) efficiency/hypoglycemic, starch loaded mice", "type": "in vivo, mouse", "conditions": "for ED100: Mus musculus, 1 h, oral, reference compounds, read-out: ED-100, CHO efficiency/hypoglycemic"}, "[7]": {"test_system": "rats", "assay": "Antiedema: carrageenan paw edema in rats", "type": "in vivo", "conditions": "Rattus norvegicus, po, 3 h, read-out: ED-100, antiedema", "method": "Rats are dosed p.o. one hour before intraplantar injection of carrigeenan (0.1 ml, 1% susp.). Inhibition of paw edema by more than 30% (>30) 3 hours after carriegeenan injection indicates acute anti-edema activity."}, "[8]": {"test_system": "mice", "assay": "Pupil dilation in mice", "type": "in vivo, mouse", "conditions": "i.p., reference compounds and the doses thereof", "method": "If the pupil diameter of mice exceeds 1.0 mm (>1) in bright light 30 minutes after dosing, i.p., ganglionic blockage or anti-cholinergic activity is indicated in the absence of adrenergic action. The following are reference compounds and the doses thereof."}, "[9]": {"test_system": "spontaneously hypertensive rats (SHR)", "assay": "Antihypertensive: blood pressure (tail cuff) in spontaneously hypertensive rats (SHR)", "type": "in vivo, rat", "conditions": "Rattus norvegicus, po, SHR; reference compounds; read-out: ED-100, antihypertensive", "method": "Blood pressure was measured indirectly (tail cuff) in unanesthetized, unheated spontaneously hypertensive rats (SHR) before and 2, 4, and 6 hours after p.o. dosing. Reduction in mean pressure by more than 10% (>10) at any two consecutive measurement times after dosing indicates antihypertensive activity."}, "[10]": {"conditions": "p.o., rats, reference compounds"}},
  "note": "Where two headings read alike, the source gives them in different places.",
  "data": [
    {"compound": "CN1CCN(C2=Nc3cc(Cl)ccc3Nc3ccccc32)CC1", "note": "[clozapine]", "values": [
      {"measurement": "ED100", "setting": "[1]", "value": 10, "unit": "mg/kg"},
      {"measurement": "ED100", "setting": "[2]", "value": 10, "unit": "mg/kg"}
    ]},
    {"compound": "CC/C(=C(/CC)c1ccc(O)cc1)c1ccc(O)cc1", "note": "[diethylstilbestrol, reference compound]", "values": [
      {"measurement": "ED100", "setting": "[3]", "value": 200, "unit": "mg/kg"},
      {"measurement": "ED100", "setting": "[4]", "value": 200, "unit": "mg/kg"}
    ]},
    {"compound": "COc1ccc(Cl)cc1C(=O)NCCc1ccc(S(=O)(=O)NC(=O)NC2CCCCC2)cc1", "note": "[glibenclamide, reference compound]", "values": [
      {"measurement": "ED100", "setting": "[5]", "value": 1, "unit": "mg/kg"},
      {"measurement": "ED100", "setting": "[6]", "value": 1, "unit": "mg/kg"}
    ]},
    {"compound": "C[C@]12CCC(=O)C=C1CC[C@@H]1[C@@H]2[C@@H](O)C[C@@]2(C)[C@H]1CC[C@]2(O)C(=O)CO", "note": "[hydrocortisone]", "values": [
      {"measurement": "ED100", "setting": "[7]", "value": 25, "unit": "mg/kg"}
    ]},
    {"compound": "CC(C)Cc1ccc(C(C)C(=O)O)cc1", "note": "(stereo not shown) [ibuprofen]", "values": [
      {"measurement": "ED100", "setting": "[7]; [10]", "value": 25, "unit": "mg/kg"}
    ]},
    {"compound": "COc1ccc2c(c1)c(CC(=O)O)c(C)n2C(=O)c1ccc(Cl)cc1", "note": "[indomethacin]", "values": [
      {"measurement": "ED100", "setting": "[7]", "value": 4, "unit": "mg/kg"}
    ]},
    {"compound": "CC(C(=O)O)c1cccc(C(=O)c2ccccc2)c1", "note": "(stereo not shown) [ketoprofen]", "values": [
      {"measurement": "ED100", "setting": "[7]", "value": 5, "unit": "mg/kg"}
    ]},
    {"compound": "CNC1(C)C2CCC(C2)C1(C)C", "note": "(stereo not shown) [mecamylamine, reference compound]", "values": [
      {"measurement": "Reference dose, pupil dilation", "setting": "[8]", "value": 2.5, "unit": "mg/kg"},
      {"measurement": "ED100", "setting": "[9]", "value": 10, "unit": "mg/kg"}
    ]},
    {"compound": "COc1ccc2cc([C@H](C)C(=O)O)ccc2c1", "note": "[naproxen]", "values": [
      {"measurement": "ED100", "setting": "[7]; [10]", "value": 5, "unit": "mg/kg"}
    ]},
    {"compound": "[H]/N=C(/N)N/C(=N/[H])NCCc1ccccc1", "note": "[phenformin, reference compound]", "values": [
      {"measurement": "ED100", "setting": "[5]", "value": 100, "unit": "mg/kg"},
      {"measurement": "ED100", "setting": "[6]", "value": 100, "unit": "mg/kg"}
    ]},
    {"compound": "CCCCC1C(=O)N(c2ccccc2)N(c2ccccc2)C1=O", "note": "[phenylbutazone]", "values": [
      {"measurement": "ED100", "setting": "[7]; [10]", "value": 50, "unit": "mg/kg"}
    ]},
    {"compound": "CCCCNC(=O)NS(=O)(=O)c1ccc(C)cc1", "note": "[tolbutamide, reference compound]", "values": [
      {"measurement": "ED100", "setting": "[5]", "value": 50, "unit": "mg/kg"},
      {"measurement": "ED100", "setting": "[6]", "value": 50, "unit": "mg/kg"}
    ]},
    {"compound": "OC(CCN1CCCCC1)(c1ccccc1)C1CCCCC1", "note": "(stereo not shown) [trihexyphenidyl]", "values": [
      {"measurement": "ED100", "setting": "[1]", "value": 2.5, "unit": "mg/kg"},
      {"measurement": "ED100", "setting": "[2]", "value": 10, "unit": "mg/kg"}
    ]},
    {"compound": "insulin", "values": [
      {"measurement": "ED-100, hypoglycemic, mice (insulin)", "setting": "[5]; s.c.", "value": 0.25, "unit": "U"},
      {"measurement": "ED-100, CHO efficiency/hypoglycemic (insulin)", "setting": "[6]; subcutaneous (s.c.)", "value": 0.25, "unit": "U"}
    ]}
  ]
}
